Measurements published in patent publication US8536120B2 (The Administrators of The Tulane Educational Fund, priority 2006, dated 2013).
Blank lines part the entries; values can stand above or below the compound they belong to. Where a SMILES comes first, the peptide text is derived from it. Where no end group is shown, it is not given here. [ ]: non-standard residue; d: D form. dTrp(2-Me) = Cc1[nH]c2ccccc2c1C[C@@H](N)C(=O)O; d2Nal = N[C@H](Cc1ccc2ccccc2c1)C(=O)O

Legend:
[1] = target: T1, human ghrelin receptor type 1a (GHS-R1a) (Homo sapiens, UniProt Q92847); test: Receptor binding: displacement of radiolabelled ghrelin on membranes of HEK-293 cells; conditions: read-out: binding affinities (Ki)
T1 construct: expressed in transfected cells; host or cells: HEK-293 cells (membranes)

[2] = target: Ghrelin/GHRP/GHS Receptor (Rattus norvegicus, UniProt O08725); test: In vitro pituitary incubation method: GH release from isolated pituitary glands, peptide alone or plus stimulator; type: cell-based; set-up: from cell culture of pituitary cells; endogenous in cells; host or cells: dispersed primary rat anterior pituitary cells, 4 days in culture; conditions: Table 12; Stimulator *S = Tyr-DTrp-Ala-Trp-Dphe-NH2 alone 0.3 μg/ml
Procedure: The peptides were synthesized by the solid phase method and purified by HPLC. GH was determined by Radioimmunoassay (RIA).
Hormonal activities were obtained from in vitro studies using pituitaries of 20 day old CD-1 strain Sprague Dawley female rats. Two pituitaries were incubated for a total of 4-6 hours. Medium was removed each hour for RIA of GH level and fresh medium was added again. After two one hour preincubation periods (P1-P2), the vehicle/peptides were added to two one hour incubations (I3-I4). Peptide activity was calculated as the change in the hormonal level (delta) between I3+I4 and P2. For antagonist activity, the incubation was continued for 2 additional hours (I5-I6) where both the peptide and a stimulator of GH secretion was added and the antagonist activity was calculated as the change in the hormonal level (delta) between I5+I6 and P2. The peptides were assayed in triplicate and the hormone was assayed in duplicate. Each value recorded represents the mean of 6. The GH RIA reagents were distributed by the NIH. Control data was collected from isolated pituitary glands treated with only the corresponding vehicle in the absence of peptide or stimulator. Control stimulated data was collected from isolated pituitary glands treated with stimulator alone in the absence of any peptide.

ghrelin receptor [3] = target: T2, ghrelin receptor (Rattus norvegicus, UniProt O08725); test: Ghrelin-stimulated food intake in rats after icv GHS-A; type: in vivo; conditions: 500 ng ghrelin icv, vs normal saline
T2 construct: from tissue; host or cells: whole animal (rat), i.c.v. or i.v. dosing
Procedure: (§1) Adult male Sprague Dawley rats (225-260 g) were purchased from Charles River Canada (St. Constant, Canada) and individually housed on a 12-h light, 12-h dark cycle (lights on, 0600-1800 h) in a temperature (22±1° C.)—and humidity-controlled room. Purina rat chow (Ralston Purina Co., St. Louis, Mo.) and tap water were available ad libitum.
(§2) Chronic intracerebroventricular (i.c.v.) and intracardiac venous cannulas were implanted under sodium pentobarbital (50 mg/kg, i.p.) anesthesia using previously described techniques in (2) and (11). The placement of the icv cannulae was verified by both a positive drinking response to i.c.v. carbachol (100 ng/10 μl) injection on the day after surgery and methylene blue dye at the time of death. After surgery, the rats were placed directly in isolation test chambers with food and H2O freely available until body weight returned to preoperative levels (usually within 5-7 d). During this time the rats were handled daily to minimize any stress associated with handling on the day of the experiment. On the test day, food was removed 1.5 h before the start of sampling and was returned at the end.
Food intake was monitored on an hourly basis as described above. In this experiment, food was removed 1.5 h before the start of the test.

ghrelin receptor [4] = target: T2, ghrelin receptor; test: Spontaneous pulsatile GH secretion in free-moving rats after icv GHS-A; type: in vivo; conditions: 5 μg GHS-A icv; vs normal saline; P<0.01 or less
Procedure: as §1, §2
These time points were chosen because they correspond closely to the time of onset of the spontaneous GH secretory episodes, as previously documented in our laboratory (2, 4). […]

ghrelin receptor [5] = target: T2, ghrelin receptor; test: Ghrelin-induced GH release in free-moving adult male rats after GHS-A pretreatment (icv or iv); type: in vivo; conditions: vs normal saline; for Plasma GH response to ghrelin i.c.v.: 5 μg antagonist icv 15 min before 500 ng ghrelin icv
Procedure: as §1, §2
The efficacy of GHS-A to antagonize ghrelin's stimulatory action on GH at both central and peripheral sites was examined. […] (500 ng). Both the human ghrelin peptide (provided by Dr. K. Chang, Phoenix Pharmaceuticals, Inc., Belmont, Calif.) and the GHS-A were diluted in normal saline just before use. Blood samples (0.35 ml) were withdrawn every 15 min over a 6-h sampling period (1000-1600 h) from all animals. […] All blood samples were immediately centrifuged, and plasma was separated and stored at −20° C. for subsequent assay of GH. To avoid hemodynamic disturbance, the red blood cells were resuspended in normal saline and returned to the animal after removal of the next blood sample.
Blood samples were withdrawn from 1000-1600 h, as described above.

ghrelin receptor [6] = target: T2, ghrelin receptor; test: Spontaneous food intake in overnight-fasted rats after icv GHS-A; type: in vivo; conditions: 5 μg GHS-A icv; overnight-fasted animals; P<0.004 vs normal saline
Procedure: as §1
Chronic intracerebroventricular (i.c.v.) and intracardiac venous cannulas were implanted under sodium pentobarbital (50 mg/kg, i.p.) anesthesia using previously described techniques in (2) and (11). […]
The effects of the GHS-A on both spontaneous and ghrelin-induced food intake and body weight gain were investigated. […] Food intake was monitored on an hourly basis for 5 h after the initial injection (until 1600 h) and subsequently overnight (1600-0900 h next morning). A measured amount of rat chow pellets was placed in the cage every hour. Spillage was collected by placement of a diaper under the rat cages, and total food consumed for each period was calculated by subtracting uneaten food plus spillage from total given. Body weights were recorded daily at 0900 h. The latency to the onset of the first meal after the injection and the duration of that meal were also monitored.

T2 sequence (O08725 whole entry): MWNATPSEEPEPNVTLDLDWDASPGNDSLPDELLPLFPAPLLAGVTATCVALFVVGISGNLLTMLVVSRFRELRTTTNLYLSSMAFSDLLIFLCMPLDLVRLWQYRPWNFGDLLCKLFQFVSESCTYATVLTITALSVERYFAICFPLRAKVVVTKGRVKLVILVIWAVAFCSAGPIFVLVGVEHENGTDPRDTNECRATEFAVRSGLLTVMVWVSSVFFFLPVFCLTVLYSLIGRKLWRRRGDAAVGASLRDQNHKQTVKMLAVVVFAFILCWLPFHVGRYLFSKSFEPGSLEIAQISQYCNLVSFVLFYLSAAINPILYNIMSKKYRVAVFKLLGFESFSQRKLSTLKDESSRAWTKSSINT
T1 sequence (Q92847 whole entry): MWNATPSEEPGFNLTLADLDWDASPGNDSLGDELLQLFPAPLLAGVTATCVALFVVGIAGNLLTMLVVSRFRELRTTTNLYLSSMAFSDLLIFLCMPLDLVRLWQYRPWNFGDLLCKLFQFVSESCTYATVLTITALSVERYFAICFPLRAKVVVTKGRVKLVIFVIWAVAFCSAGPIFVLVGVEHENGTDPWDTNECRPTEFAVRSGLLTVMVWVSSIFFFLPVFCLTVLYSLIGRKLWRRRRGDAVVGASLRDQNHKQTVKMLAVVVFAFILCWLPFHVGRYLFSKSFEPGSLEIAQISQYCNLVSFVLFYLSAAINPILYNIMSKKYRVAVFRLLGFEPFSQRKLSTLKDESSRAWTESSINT
Chain of Ghrelin/GHRP/GHS Receptor (O08725 whole entry): as the sequence (O08725 whole entry) above

Ki [1]: 0.59 nM
Compound: Cc1[nH]c2ccccc2c1C[C@@H](NC(=O)[C@@H](N)Cc1cnc[nH]1)C(=O)N[C@@H](C)C(=O)N[C@@H](Cc1c[nH]c2ccccc12)C(=O)N[C@H](Cc1ccccc1)C(=O)N[C@@H](CCCCN)C(N)=O [hexarelin] (H-H[dTrp(2-Me)]AW[dF]K-NH2)

Stimulated Control GH release [2]: 2218 ± 194 ng/mL
Compound: Tyr-DTrp-Ala-Trp-Dphe-NH2

Cumulative food intake after ghrelin (ghrelin receptor [3]; 5 μg GHS-A icv): significantly suppressed for up to 5 h
Ghrelin-stimulated food intake in the first hour after injections (ghrelin receptor [3]; 5 μg antagonist icv, P<0.02 or less): significantly inhibited
1-h GH AUC's of spontaneous GH secretory episodes at 1100 h and 1400 h, and overall 6-h GH AUC (ghrelin receptor [4]): significantly reduced
Reduction of GH AUC following i.c.v. ghrelin (ghrelin receptor [5]; GHS-A icv pretreatment, 500 ng ghrelin icv, P<0.0003 or less): 15 fold
Reduction of GH AUC following i.v. ghrelin (ghrelin receptor [5]; GHS-A iv pretreatment, 5 μg ghrelin iv, P<0.0003 or less): 5 fold
Spontaneous food intake in the first hour after injection (ghrelin receptor [6]): significantly inhibited
Compound: H[d2Nal][dK]W[dF]K-NH2
Plasma GH response to ghrelin i.c.v. (ghrelin receptor [5]): virtually obliterated the GH response to ghrelin
Plasma GH response to ghrelin i.c.v. (ghrelin receptor [5]; listed as GHS-A): abolished the stimulatory action of ghrelin on GH release
Plasma GH response to ghrelin i.v. (ghrelin receptor [5]; 250 μg antagonist iv 15 min before 5 μg ghrelin iv, listed as GHS-A): strongly blocked ghrelin's ability to release GH
